In patent publication US12139472B2, “Inhibitors of advanced glycation end products” (priority 2019, dated 2024):

Columns and labels:
[1] = tested on: CYP3A; type: in vitro ADME, human; settings: HLM
Text: (§1) Compound 5 (PTG-630 free base) and 7 additional compounds for CYP3A P450 inhibition.
Imidazole (and benzimidazole) containing drugs are ubiquitous in pharmacological practice; however, drug-drug interactions (DDI) have been observed with some imidazole-containing classes, such as the antifungal azoles typified by ketoconazole. It is believed that the imidazole moiety accounts for their ability to inhibit CYP3A, the major DDI enzyme that metabolizes up to 50% of common drugs. The compounds of the disclosure incorporate an imidazole moiety attached to a pyridine ring via the imidazole C-2. They all share an imidazo-hydroxypyridine theme that can bind redox metal ions, while differing in the nature of the X side-chain. The potential of the compounds of the disclosure for DDI was evaluated by screening their inhibition of CYP3A.
(§2) Two studies were conducted in human liver microsomes (HLM). Lead candidate PTG-630 was tested using the Eurofins G232 panel (Drug Metab Dispos. 2001 January; 29(1):23-9), where inhibition was measured against seven CYP enzymes; CYP3A4 was tested using two different substrates, midazolam and testosterone. In a second study, inhibition of CYP3A4 (midazolam substrate only) was compared for 8 compounds of interest. The test protocol involved one-point measurements in duplicate, where inhibition was measured at a fixed 10 μM concentration of candidate inhibitors. In all cases, the substrate for each CYP enzyme was at a concentration equal to its specific Km value that was independently obtained from an 8-point dose-response study. Based on the observed value for percent inhibition for each test compound, we calculated of an IC50 assuming a competitive mode of inhibition. If percent inhibition for an inhibitor at a concentration of [I] is denoted by P, then: IC50=[I]*(100−P)/P In the single-point assay, [I] is 10 μM. If measured inhibition is 10%, then IC50=10*(100-10)/10=90 μM. […] As discussed in Lin et al. (J Pharm Sci. 2007 September; 96(9):2485-93; doi: 10.1002/jps.20884), CYP inhibition is broadly interpreted as being “potent” if IC50<1 μM, “moderate” if 1 μM<IC50<10 μM, and “weak” if IC50>10 μM.

[2] = Pharmacokinetic study for PTG-630 (IV and PO): plasma, whole blood, tissues, urine; type: in vivo, Sprague Dawley rats
Description: The samples were analyzed in two batches with standards and QCs prepared on rat plasma and rat urine. Analyst® 1.6 (SCIEX) software was used for statistical analysis of bioanalytical data. […] Dose samples collected at 0.083 h-6 h postdose were diluted 4 times with SD rat plasma prior to plating. Twenty-four (24) hours plasma samples were assayed without dilution. […] Two sciatic nerve samples were excluded from analysis, due to the insufficient sample size. […] The 12 non-cannulated animals were arbitrarily assigned to groups upon arrival and housed together throughout the experiment. The animals were acclimated to their designated housing for at least 24 hours before the first day of dosing. […] Blood samples were collected via cannula from IV dosed rats or by cardiac stick from PO dosed rats at the specified time points for sampling pharmacokinetics. Blood was collected into K2EDTA tubes. Tubes were mixed gently after blood collection, chilled and centrifuged at 3000 rpm, 4° C. within 30 minutes upon collection. The samples were centrifuged at 4° C. and the resultant plasma separated. […] Urine from Group 1 was collected via polycarbonate tubes from rats placed in drug metabolism cages. Urine was maintained and room temperature through the collection period.

[3] = target: T1, CYP2D6 (Homo sapiens, UniProt P10635); test: CYP2D6 inhibition (HLM), dextromethorphan; type: in vitro ADME
T1 construct: Two studies were conducted in human liver microsomes (HLM); tissue Eurofins G232 panel; host or cells: human liver microsomes
T1 sequence (P10635 whole entry): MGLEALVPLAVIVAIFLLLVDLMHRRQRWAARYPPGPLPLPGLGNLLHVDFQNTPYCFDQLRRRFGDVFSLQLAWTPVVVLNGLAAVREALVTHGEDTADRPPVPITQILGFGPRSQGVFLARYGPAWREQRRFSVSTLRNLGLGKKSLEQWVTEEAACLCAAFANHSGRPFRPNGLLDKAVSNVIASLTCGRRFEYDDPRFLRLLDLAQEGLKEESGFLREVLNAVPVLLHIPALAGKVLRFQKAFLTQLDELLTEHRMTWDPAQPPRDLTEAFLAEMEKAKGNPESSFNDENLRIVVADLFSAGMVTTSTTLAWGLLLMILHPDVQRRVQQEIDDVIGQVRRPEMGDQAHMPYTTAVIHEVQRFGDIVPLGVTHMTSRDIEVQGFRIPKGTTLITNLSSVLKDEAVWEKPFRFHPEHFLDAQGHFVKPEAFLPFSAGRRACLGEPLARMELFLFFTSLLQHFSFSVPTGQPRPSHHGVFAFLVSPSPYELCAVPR
Description: as §1, §2

[4] = Preparation of dosing solutions in 0.5% methyl cellulose and 0.1% Tween 20 in water; type: physicochemical; settings: 0.5% methyl cellulose
Description: Compound 5 (PTG-630 free base) and Compound 19 (PTG-630 HCl salt) solutions were prepared in 0.5% methyl cellulose and 0.1% Tween 20 in water for administration to animals by oral gavage (PO).
Compound 5 was administered at 10 mg/kg and 100 mg/kg. […] The solution was vortexed vigorously for minutes and then sonicated in a water bath for 5 min. The solution remained as a thick creamy yellowish suspension at pH 8. The solution for the 10 mg/kg free base dose (2 mg/ml solution) was easier to prepare. […] The final solution that was administered was a clear, light yellowish solution with few small particulates in suspension.
Compound 19 was administered at 10 mg/kg. […] The solution (2 mg/ml) was clear yellowish (although lighter than the Compound 5 solution at 2 mg/ml) with no particulates in suspension. The pH decreased to 3.

[5] = target: T2, CYP2C9 (Homo sapiens, UniProt P11712); test: CYP2C9 inhibition (HLM), diclofenac; type: in vitro ADME
T2 construct: Two studies were conducted in human liver microsomes (HLM); tissue Eurofins G232 panel; host or cells: human liver microsomes
T2 sequence (P11712 whole entry): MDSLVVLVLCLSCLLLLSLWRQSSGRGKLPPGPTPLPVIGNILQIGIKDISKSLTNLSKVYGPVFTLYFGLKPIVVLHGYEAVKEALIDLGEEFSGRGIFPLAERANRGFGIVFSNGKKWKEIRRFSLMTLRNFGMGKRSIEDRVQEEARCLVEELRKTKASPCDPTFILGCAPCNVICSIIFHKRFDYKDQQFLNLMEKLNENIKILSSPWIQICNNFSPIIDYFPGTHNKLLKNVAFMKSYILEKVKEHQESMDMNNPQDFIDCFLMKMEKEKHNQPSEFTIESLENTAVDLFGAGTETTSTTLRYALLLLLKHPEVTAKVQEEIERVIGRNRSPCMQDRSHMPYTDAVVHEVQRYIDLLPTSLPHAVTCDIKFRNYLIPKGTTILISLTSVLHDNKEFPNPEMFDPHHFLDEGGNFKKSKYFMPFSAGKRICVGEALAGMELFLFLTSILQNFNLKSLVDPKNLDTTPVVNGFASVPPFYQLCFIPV
Description: as §1, §2

[6] = plasma, PO 100 mg/kg vs IV 5 mg/kg

## Cc1ncc(CN2CCOCC2)c(-c2ncc[nH]2)c1O [PTG-630]
[1]; midazolam, from one-point % inhibition at 10 μM, IC50=[I]*(100−P)/P
  Estimated IC50: — None
[1]; substrate midazolam at Km, Inhib Conc. 1.0E−05 M
  P % inhib: −12.1%
[2]; [6]
  fold decrease in AUClast for PO route over IV route: 4 fold
  fold decrease in mean Cmax for PO route over IV route: 17 fold
[2]; rat, in vivo
  Mean Residence Time (MRT) in plasma, single IV versus PO group: comparable
  bioavailable, PO route, based on AUCinf: < 1%
  increase in the half-life in plasma, IV route in comparison with PO route: 4.25 folds
[2]; rat, in vivo, iv
  terminal phase half-life: 15.8 h
[2]; rat, in vivo, iv, 5 mg/kg
  AUClast: 34000 ng·h/mL
  Cmax: 20,400 ng/mL
[2]; rat, in vivo, po
  AUC last in liver higher than in plasma: 2.6 folds
  Elimination phase half-life (t1/2): 1.35 h
  Half-life: 4.53 h
  Tmax in tissues: 1 h
  absorption in tissues (in words): rapidly absorbed in tissues without delay
  detection in tissues 24 hours postdose: not detectable in any tissue, except plasma
  exposure in kidney higher than in plasma, based on Cmax: 3.4 folds
  exposure in liver higher than in plasma, based on Cmax: 5.47 folds
  exposure in muscle (lowest) versus plasma: comparable to those in plasma
  half-life: 3.71 h
  half-life in brain relative to plasma (times higher): 1.3 times
  level of exposure in selected tissues exceeds the exposure in plasma (up to): 3-5 folds
  quantifiable in tissues: quantifiable in all tested tissues
[2]; rat, in vivo, po, 100 mg/kg
  AUClast: 8600 ng·h/mL
[2]; rat, po
  blood brain permeability (in words): indicating blood brain permeability
[3]; dextromethorphan, from one-point % inhibition at 10 μM, IC50=[I]*(100−P)/P
  Estimated IC50: — None
[3]; substrate dextromethorphan at Km, Inhib Conc. 1.0E−05 M
  P % inhib: −0.83%
[4]; 2 mg/ml solution (10 mg/kg dose)
  dissolution in vehicle: few small particles remained
[4]; 20 mg/ml solution (100 mg/kg dose)
  dissolution in vehicle: difficult to dissolve
[5]; diclofenac, from one-point % inhibition at 10 μM, IC50=[I]*(100−P)/P, read-out: Estimated IC50
  IC50: 284 µM
[5]; substrate diclofenac at Km, Inhib Conc. 1.0E−05 M
  P % inhib: 3.4%
